Results: PubChem BioAssay (NCI)
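Briefly, cells in 96-well plates were exposed to five compound concentrations for 48 h, and endpoints were estimated by linear interpolation. At the GI50, growth is halved. TGI marks complete inhibition of growth.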

Tests used:
Experiment in all cases: DTP human tumour cell line panel, 48 h
[1] = test system: 786-0 renal
[2] = test system: A498 renal
[3] = test system: A549 NSCLC
[4] = test system: ACHN renal
[5] = test system: BT-549 breast
[6] = test system: CAKI-1 renal
[7] = test system: COLO 205 colon
[8] = test system: DU-145 prostate
[9] = test system: EKVX NSCLC
[10] = test system: HCC-2998 colon
[11] = test system: HCT-116 colon
[12] = test system: HCT-15 colon
[13] = test system: HOP-62 NSCLC
[14] = test system: HOP-92 NSCLC
[15] = test system: HS 578T breast
[16] = test system: HT29 colon
[17] = test system: IGROV1 ovarian
[18] = test system: K-562 leukemia
[19] = test system: KM12 colon
[20] = test system: LOX IMVI melanoma
[21] = test system: M14 melanoma
[22] = test system: MALME-3M melanoma
[23] = test system: MCF7 breast
[24] = test system: MDA-MB-231 breast
[25] = test system: MDA-MB-435
[26] = test system: MDA-N
[27] = test system: MOLT-4 leukemia
[28] = test system: NCI-H226 lung
[29] = test system: NCI-H23 lung
[30] = test system: NCI-H460 lung
[31] = test system: NCI-H522 lung
[32] = test system: NCI/ADR-RES ovarian
[33] = test system: OVCAR-3 ovarian
[34] = test system: OVCAR-4 ovarian
[35] = test system: OVCAR-5 ovarian
[36] = test system: OVCAR-8 ovarian
[37] = test system: PC-3 prostate
[38] = test system: RPMI-8226 leukemia
[39] = test system: RXF 393 renal
[40] = test system: SF-268 CNS
[41] = test system: SF-295 CNS
[42] = test system: SF-539 CNS
[43] = test system: SK-MEL-2 melanoma
[44] = test system: SK-MEL-28 melanoma
[45] = test system: SK-MEL-5 melanoma
[46] = test system: SK-OV-3 ovarian
[47] = test system: SN12C renal
[48] = test system: SNB-19 CNS
[49] = test system: SNB-75 CNS
[50] = test system: SR leukemia
[51] = test system: SW-620 colon
[52] = test system: T-47D breast
[53] = test system: TK-10 renal
[54] = test system: U251 CNS
[55] = test system: UACC-257 melanoma
[56] = test system: UACC-62 melanoma
[57] = test system: UO-31 renal

O=[N+]([O-])[O][Sn]([O][Sn]([O][N+](=O)[O-])([c]1ccccc1)[c]1ccccc1)([c]1ccccc1)[c]1ccccc1
GI50 [1]: > 100 µM | TGI [1]: > 100 µM | GI50 [2]: > 100 µM | TGI [2]: > 100 µM | GI50 [3]: > 100 µM | TGI [3]: > 100 µM | GI50 [4]: > 100 µM | TGI [4]: > 100 µM | GI50 [5]: > 100 µM | TGI [5]: > 100 µM | GI50 [6]: > 100 µM | TGI [6]: > 100 µM | GI50 [7]: > 100 µM | TGI [7]: > 100 µM | GI50 [8]: > 100 µM | TGI [8]: > 100 µM | GI50 [9]: > 100 µM | TGI [9]: > 100 µM | GI50 [10]: > 100 µM | TGI [10]: > 100 µM | GI50 [11]: > 100 µM | TGI [11]: > 100 µM | GI50 [12]: > 100 µM | TGI [12]: > 100 µM | GI50 [13]: > 100 µM | TGI [13]: > 100 µM | GI50 [14]: 38.6 µM | TGI [14]: > 100 µM | GI50 [15]: 47.1 µM | TGI [15]: > 100 µM | GI50 [16]: > 100 µM | TGI [16]: > 100 µM | GI50 [17]: 72.8 µM | TGI [17]: > 100 µM | GI50 [18]: > 100 µM | TGI [18]: > 100 µM | GI50 [19]: > 100 µM | TGI [19]: > 100 µM | GI50 [20]: 83.4 µM | TGI [20]: > 100 µM | GI50 [21]: > 100 µM | TGI [21]: > 100 µM | GI50 [22]: 79.3 µM | TGI [22]: > 100 µM | GI50 [23]: > 100 µM | TGI [23]: > 100 µM | GI50 [24]: > 100 µM | TGI [24]: > 100 µM | GI50 [25]: > 100 µM | TGI [25]: > 100 µM | GI50 [26]: > 100 µM | TGI [26]: > 100 µM | GI50 [27]: > 100 µM | TGI [27]: > 100 µM | GI50 [28]: > 100 µM | TGI [28]: > 100 µM | GI50 [29]: > 100 µM | TGI [29]: > 100 µM | GI50 [30]: > 100 µM | TGI [30]: > 100 µM | GI50 [31]: 23.1 µM | TGI [31]: > 100 µM | GI50 [32]: > 100 µM | TGI [32]: > 100 µM | GI50 [33]: > 100 µM | TGI [33]: > 100 µM | GI50 [34]: > 100 µM | TGI [34]: > 100 µM | GI50 [35]: > 100 µM | TGI [35]: > 100 µM | GI50 [36]: > 100 µM | TGI [36]: > 100 µM | GI50 [37]: 63.2 µM | TGI [37]: > 100 µM | GI50 [38]: > 100 µM | TGI [38]: > 100 µM | GI50 [39]: > 100 µM | TGI [39]: > 100 µM | GI50 [40]: > 100 µM | TGI [40]: > 100 µM | GI50 [41]: > 100 µM | TGI [41]: > 100 µM | GI50 [42]: > 100 µM | TGI [42]: > 100 µM | GI50 [43]: > 100 µM | TGI [43]: > 100 µM | GI50 [44]: > 100 µM | TGI [44]: > 100 µM | GI50 [45]: > 100 µM | TGI [45]: > 100 µM | GI50 [46]: > 100 µM | TGI [46]: > 100 µM | GI50 [47]: > 100 µM | TGI [47]: > 100 µM | GI50 [48]: > 100 µM | TGI [48]: > 100 µM | GI50 [49]: > 100 µM | TGI [49]: > 100 µM | GI50 [50]: > 100 µM | TGI [50]: > 100 µM | GI50 [51]: > 100 µM | TGI [51]: > 100 µM | GI50 [52]: > 100 µM | TGI [52]: > 100 µM | GI50 [53]: > 100 µM | TGI [53]: > 100 µM | GI50 [54]: > 100 µM | TGI [54]: > 100 µM | GI50 [55]: > 100 µM | TGI [55]: > 100 µM | GI50 [56]: 53.6 µM | TGI [56]: > 100 µM | GI50 [57]: > 100 µM | TGI [57]: > 100 µM
